# Measured values taken from publication PMC3759666, “Post-translational modification and conformational state of Heat Shock Protein 90 differentially affect binding of chemically diverse small molecule inhibitors” (Oncotarget, 2013).
# Columns and labels:
# [1] = target: T1, yeast Hsp90 (Saccharomyces cerevisiae, UniProt P02829); test: DMS cross-linking of N domain dimers; p23 binding by fluorescence anisotropy; assay type: biochemical
# T1 construct: gene HSP82; purified yeast Hsp90
# [2] = target: T2, yeast Hsp90 (Hsp82) (Saccharomyces cerevisiae, UniProt P02829); test: BODIPY-GA anisotropy/displacement; GA-bead capture from yeast lysate; assay type: binding
# T2 construct: wild-type NMC; coilNMC also measured
# T2 sequence (P02829 whole entry): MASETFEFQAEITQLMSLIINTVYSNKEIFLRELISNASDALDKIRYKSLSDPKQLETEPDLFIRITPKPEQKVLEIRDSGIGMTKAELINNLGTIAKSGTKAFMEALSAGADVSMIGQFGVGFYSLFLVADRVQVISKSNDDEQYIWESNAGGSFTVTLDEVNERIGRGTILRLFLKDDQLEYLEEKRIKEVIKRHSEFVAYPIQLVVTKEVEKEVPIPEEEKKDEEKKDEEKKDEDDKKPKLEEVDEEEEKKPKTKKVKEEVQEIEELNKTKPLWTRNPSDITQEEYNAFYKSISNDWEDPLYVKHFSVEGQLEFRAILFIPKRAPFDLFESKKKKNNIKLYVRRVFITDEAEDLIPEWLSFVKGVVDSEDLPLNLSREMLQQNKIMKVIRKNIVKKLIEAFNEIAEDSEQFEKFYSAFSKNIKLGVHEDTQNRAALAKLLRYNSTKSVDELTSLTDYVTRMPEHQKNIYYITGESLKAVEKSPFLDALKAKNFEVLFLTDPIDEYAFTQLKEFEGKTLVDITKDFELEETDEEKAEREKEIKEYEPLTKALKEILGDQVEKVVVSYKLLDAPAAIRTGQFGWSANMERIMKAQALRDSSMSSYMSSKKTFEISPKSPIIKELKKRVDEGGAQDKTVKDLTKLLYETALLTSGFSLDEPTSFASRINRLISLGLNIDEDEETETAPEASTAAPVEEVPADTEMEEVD
# [3] = target: T3, Hsp90β (Homo sapiens, UniProt P08238)
# T3 construct: gene HSP90AB1
# T3 sequence (P08238 2-724): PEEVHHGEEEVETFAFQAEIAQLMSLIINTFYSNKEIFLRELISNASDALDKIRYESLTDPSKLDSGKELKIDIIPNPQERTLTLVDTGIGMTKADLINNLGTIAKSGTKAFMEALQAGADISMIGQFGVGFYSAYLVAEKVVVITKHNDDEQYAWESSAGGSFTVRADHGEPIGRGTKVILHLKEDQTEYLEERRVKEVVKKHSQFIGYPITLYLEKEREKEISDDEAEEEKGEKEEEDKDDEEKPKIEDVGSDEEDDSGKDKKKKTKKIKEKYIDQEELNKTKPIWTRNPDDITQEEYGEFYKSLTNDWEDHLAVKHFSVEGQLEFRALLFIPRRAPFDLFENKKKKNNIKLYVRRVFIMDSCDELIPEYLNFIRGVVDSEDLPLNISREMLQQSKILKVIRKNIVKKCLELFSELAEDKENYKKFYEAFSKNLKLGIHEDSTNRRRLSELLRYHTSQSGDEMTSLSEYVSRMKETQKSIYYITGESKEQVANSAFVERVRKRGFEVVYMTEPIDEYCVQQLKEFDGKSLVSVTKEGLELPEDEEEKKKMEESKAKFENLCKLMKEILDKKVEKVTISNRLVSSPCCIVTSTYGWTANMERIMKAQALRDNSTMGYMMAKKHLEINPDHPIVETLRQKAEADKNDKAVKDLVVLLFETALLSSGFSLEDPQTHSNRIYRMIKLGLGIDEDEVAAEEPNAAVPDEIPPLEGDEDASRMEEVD
# [4] = target: T2, yeast Hsp90 (Hsp82); test: PU-bead capture from yeast lysate; assay type: cell-based
# T1 sequence (P02829 whole entry): as the sequence (P02829 whole entry) above
structure (smiles),measurement,setting,value
Nc1ncnc2c1ncn2[C@@H]1O[C@H](CO[P@](=O)(O)O[P@](=O)(O)NP(=O)(O)O)[C@@H](O)[C@H]1O [AMP-PNP],DMS cross-linking of N domain dimers; p23 binding by fluorescence anisotropy,[1],Only AMP-PNP promoted significant N domain dimerization (Figure 2F).
"COC1=C2C[C@@H](C)C[C@H](OC)[C@H](O)[C@@H](C)/C=C(\C)[C@H](OC(N)=O)[C@@H](OC)/C=C\C=C(/C)C(=O)NC(=CC1=O)C2=O [GA, geldanamycin]",BODIPY-GA anisotropy/displacement; GA-bead capture from yeast lysate,[2],Coiled-coil yeast Hsp90 (coilNMC) has a similar affinity for GA as wild-type Hsp90 (NMC)
same,GA-agarose capture of Flag-Hsp90β from 293-H cell lysate,[3],GA-beads bound the non-phosphorylatable mutants (Hsp90α-Y197F and Hsp90β-Y192F) similarly to wild-type Hsp90
"CC(C)NCCCn1c(Sc2cc3c(cc2I)OCO3)nc2c(N)ncnc21 [PU, PU-H71]",PU-bead capture from yeast lysate,[4],"both GA- and PU-beads efficiently isolated coiled-coil Hsp90 from yeast lysates, compared to wild-type Hsp90"
